Earlier results as cited in article PMC8018465, “Antimicrobial activities of a small molecule compound II-6s against oral streptococci” (Journal of Oral Microbiology, 2021).

System: methicillin-resistant Staphylococcus aureus (MRSA)
Design: method as in PMID 30940910
Details: cited from earlier work

## CC(C)(Cc1ccc2ccccc2c1)NC[C@@H](O)COc1cccc(Cl)c1C#N [NPS-2143, reference compound]
  antimicrobial activity against MRSA: bacteriostatic activity
